According to patent US11583506B1, “Cannabinoids for use in suppressing cancer stem cells” (VIVACELL BIOTECHNOLOGY ESPAÑA S.L.U., priority 2020, dated 2023):
Entries after “also recorded” stand apart in the source; their conditions may differ.

Assays:
Assay type in all cases: cell-based, human
Notch1 [1] = test: Notch1 expression in H1299 cancer cell line; settings: H1299 (Lung)
Method: (§1) The effect of CBGV on Notch1 expression levels was evaluated in a panel of cancer cell lines. Human colorectal carcinoma Hct116 (No. CCL-247), human colorectal adenocarcinoma HT-29 (No. HTB-38), human brain neuroblastoma SK—N—SH (No. HTB-11), human breast adenocarcinoma MDA-MB-231 (No. HTB-26), human prostate adenocarcinoma PC3 (No. CRL-1435), human prostate carcinoma DU-145 (No. HTB-81), human lung carcinoma A549 (No. CCL-185) and human lung carcinoma H1299 (No. CRL-5803) cell lines were obtained from the American Type Culture Collection (ATCC, USA).

Notch1 [2] = test: Notch1 expression in Hct116 cancer cell line; settings: Hct116 (Colon)
Method: as §1

HCT 116 cells = test: tumorospheres (colonospheres) formation assay; settings: 7 days of treatment, 1, 2.5, 5 and 10 μM, vs vehicle (DMSO)
Excerpt: Cancer stem cells (CSC) cultured 3-dimentionally in a serum-free medium supplemented with growth factors are able to form floating spheroids known as tumorospheres (Reynolds B A et al. Dev Biol. 1996; 175(1):1-13. doi:10.1006/dbio.1996.0090; Singh S K et al. Cancer Res. 2003; 63(18):5821-8. PMID: 14522905). These cancer cells-derived spheroids have been proven to display CSCs characteristics and recapitulate in vitro the in vivo conditions of cancer growth becoming an ideal model to evaluate anti-CSC drugs (Dieter S M et al. Cell Stem Cell. 2011; 9(4):357-65. doi: 10.1016/j.stem.2011.08.010. PMID: 21982235; Lee C H et al. Oncotarget. 2016; 7(2):1215-26. doi: 10.18632/oncotarget.6261. PMID: 26527320).
To study the CBD effect on colonospheres proliferation, a tumorospheres formation assay was performed. Briefly, human colorectal carcinoma HCT 116 cells (ATCC No. CCL-247) were trypsinized, quantified and seeded at clonal density (5 cell/μL) in ultra-low attachment surface 96-well plates (Corning-Costar. Coming, N.Y., USA) with serum free Dulbecco's Modified Eagle's Medium (DMEM)/Nutrient Mixture F-12 Ham (Sigma-Aldrich. St. Louis, Mo., USA) supplemented with 1X B-27 (Invitrogen, Carlsbad, Calif., USA), 10 ng/mL basic fibroblast growth factor (bFGF; PeproTech. London, UK), 20 ng/mL epidermal growth factor (EGF; Santa Cruz Biotechnology, Heidelberg, Germany), 1% (v/v) methylcellulose (R&D Systems. Minneapolis, Minn., USA) to prevent cell aggregation and the corresponding dose of vehicle (DMSO) or CBD concentration (1, 2.5, 5 and 10 μM). Every 2-3 days freshly supplements were added and the number and size of colonospheres were analysed by optical microscopy 1 week after seeding.

Notch1 [3] = test: Notch1 expression in MDA-MB-231 cancer cell line; settings: MDA-MB-231 (Breast)
Method: as §1

Notch1 [4] = test: Notch1 expression in HT-29 cancer cell line; settings: HT-29 (Colon)
Method: as §1

Notch1 [5] = test: Notch1 levels in HCT 116 cells by western blot; settings: for Notch1 levels, panel of natural cannabinoids / Notch1 expression levels, concentration dependence: HCT 116 cells; for Notch1 levels, panel of natural cannabinoids: 24 hours, 10 μM; for Notch1 expression levels, concentration dependence: 24 hours, 1, 2.5, 5 and 10 μM
Method: (§2) In cancer stem cells Notch1 signalling pathway is abnormally activated (Venkatesh V et al. Stem Cell Investig. 2018 Mar. 12; 5:5. doi: 10.21037/sci.2018.02.02. PMID: 29682512). For this reason, to further analyse the anti-proliferative CBD effect on colonospheres formation, Notch1 expression was investigated by western blot analysis. Briefly, after treatments, the colonospheres were washed with PBS1X and whole-cell proteins were extracted in 50 μL of lysis buffer (50 mM Tris-HCl pH 7.5, 150 mM NaCl, 10% glycerol and 1% NP-40) supplemented with 10 mM NaF, 1 mM Na3VO4, 10 μg/mL leupeptine, 1 μg/mL pepstatin and aprotinin, and 1 μL/mL phenylmethylsulfonyl fluoride saturated. Protein concentration of the whole-cell lysates was quantified by absorbance at 595 nm using Bradford reagent compared to a bovine serum albumin standard curve. Then, forty micrograms of protein were boiled at 95° C. in Laemmli buffer and electrophoresed in 10% SDS/PAGE gels. Separated proteins were transferred to polyvinylidene difluoride (PVDF) membranes (20V for 30 min) and blocked in TBSIX solution containing 0.1% Tween 20 and 5% non-fat dry milk for 1 hour at room temperature. Immunodetection of specific proteins was carried out by incubation with primary antibody against human Notch1 (1:1000 dilution. Ref. #ab52627, Abcam. Cambridge, UK) and β-actin (1:10.000 dilution. Ref. #A5316, Sigma-Aldrich. St. Louis, Mo., USA) overnight at 4° C. After washing membranes, horseradish peroxidase-conjugated secondary antibody was added and the protein bands on the membranes were detected with ECL reagent (BioRad. Hercules, Calif., USA) by chemiluminescence system (GE Healthcare Europe GmbH. Munich, Germany).
The densitometry analysis was performed using ImageJ software, and the quantified band intensities were normalized to Actin. […] Thus, it can be concluded that the reduction of Notch1 levels is critical to inhibit the colonospheres proliferation.
(§3) To gain insight into the CBD effect on Notch1 pathway, a deep study using the human colorectal carcinoma HCT 116 cell line (ATCC No. CCL-247) was performed to analyse Notch1 levels. […] Moreover, the Hes5 protein level, a Notch signalling-related protein, was also analysed by western blot following the methodology explained above and using a specific primary antibody (Human anti-Hes5. 1:1000 dilution. Ref. #ab25374, Abcam. Cambridge, UK). […] To further clarify the CBD mechanism of causing a reduced Notch1 expression, HCT 116 cells were incubated with the proteasome inhibitor MG132 and/or with CBD.
A panel of natural cannabinoids CBDA, CBDV, CBC, CBCA, CBCV, CBG, CBGA, CBGV, CBGVA, CBN, THC and THCA were evaluated in its capacity to reduce Notch1 levels in human colorectal carcinoma HCT 116 cell line. CBD was purchase from Endoca BV (Netherlands). CBDA, CBDV, CBCA, CBG, CBGA, THC and […] were purchased from Phytoplant Research S.L (Cordoba, Spain). CBC, CBCV, CBGV, CBGVA and CBN were provided by the laboratory of the Professor Giovanni Appendino from the University of Piemonte Orientale (Novara, Italy).

Notch1 [6] = test: Notch1 expression in DU145 cancer cell line; settings: DU145 (Prostate)
Method: as §1

Notch1 [7] = test: Notch1 expression in PC3 cancer cell line; settings: PC3 (Prostate)
Method: as §1

Notch1 [8] = test: Notch1 expression in A549 cancer cell line; settings: A549 (Lung)
Method: as §1

Notch1 [9] = test: Notch1 expression in SK-N-SH cancer cell line; settings: SK-N-SH (Brain)
Method: as §1

Notch1 [10] = test: Notch1 expression in colonospheres by western blot; settings: colonospheres after 7 days of treatment, 1 and 5 μM, western blot normalized to Actin
Method: as §2, with “Separated proteins were transferred to polyvinylidene difluoride (PVDF) membranes (20V for 30 min) and blocked in TBSIX solution containing 0.1% Tween 20 and 5% non-fat dry milk for 1 hour at room temperature. Immunodetection of specific proteins was carried out by incubation with primary antibody against human Notch1 (1:1000 dilution. Ref. #ab52627, Abcam. Cambridge, UK) and β-actin (1:10.000 dilution. Ref. #A5316, Sigma-Aldrich. St. Louis, Mo., USA) overnight at 4° C.” left out
The densitometry analysis was performed using ImageJ software, and the quantified band intensities were normalized to Actin. […]

Hes5 = Hes5 protein level in HCT 116 cells by western blot; settings: 10 μM, 6, 16 and 24 hours
Method: as §2, with “Separated proteins were transferred to polyvinylidene difluoride (PVDF) membranes (20V for 30 min) and blocked in TBSIX solution containing 0.1% Tween 20 and 5% non-fat dry milk for 1 hour at room temperature. Immunodetection of specific proteins was carried out by incubation with primary antibody against human Notch1 (1:1000 dilution. Ref. #ab52627, Abcam. Cambridge, UK) and β-actin (1:10.000 dilution. Ref. #A5316, Sigma-Aldrich. St. Louis, Mo., USA) overnight at 4° C.” left out, “Germany). […]” for “Germany).”

Notch1 [11] = test: Notch1 degradation with proteasome inhibitor MG132 in HCT 116 cells; settings: 24 hours, 10 μM CBD and/or 10 μM MG-132
Method: as §3

Row | SMILES | Inhibition of Notch1 expression in cancer cells (Notch1 [1]) | Inhibition of Notch1 expression in cancer cells (Notch1 [2]) | colonospheres formation (HCT 116 cells) | Inhibition of Notch1 expression in cancer cells (Notch1 [3]) | Inhibition of Notch1 expression in cancer cells (Notch1 [4]) | Notch1 levels, panel of natural cannabinoids (Notch1 [5]) | Notch1 expression levels, concentration dependence (Notch1 [5]) | Inhibition of Notch1 expression in cancer cells (Notch1 [6]) | Inhibition of Notch1 expression in cancer cells (Notch1 [7]) | Inhibition of Notch1 expression in cancer cells (Notch1 [8]) | Inhibition of Notch1 expression in cancer cells (Notch1 [9]) | Notch1 levels in colonospheres (Notch1 [10]) | Hes5 expression levels (Hes5) | Notch1 degradation through the proteasome (Notch1 [11]) | Notch1 protein levels in HCT 116 cells (dose and time dependence) (Notch1 [5]; 1, 2.5, 5 and 10 μM for 24 hours, 10 μM at 6, 16 and 24 hours)
1 | CCCc1cc(O)c(C/C=C(\C)CCC=C(C)C)c(O)c1 [CBGV, cannabigerovarin] | Yes | Yes | potent dose-dependent anti-proliferative effect of colonospheres formation; also recorded: inhibit colonospheres formation | Yes | Yes | clearly diminished Notch1 levels; also recorded: reduce Notch1 expression levels | reduce Notch1 expression levels in a concentration-dependent manner | Yes | Yes | Yes | Yes |  |  |  | 
2 | C=C(C)[C@@H]1CCC(C)=C[C@H]1c1c(O)cc(CCCCC)cc1O [CBD, cannabidiol] |  |  | significantly reduces the colonospheres formation in a clear dose-dependent manner |  |  | clearly diminished Notch1 levels; also recorded: reduce Notch1 expression levels |  |  |  |  |  | clearly diminished in a dose-dependent manner; also recorded: reduces Notch1 expression levels in colonospheres | clearly reduces Hes5 expression levels in HCT 116 cells in a time-dependent manner; also recorded: reduces the expression of Hes5 | induces Notch1 degradation by the proteasomal degradation machinery; also recorded: induces Notch1 degradation through the proteasome | reduces Notch1 protein levels in HCT 166 cells in a dose- and time-dependent manner; also recorded: reduces Notch1 expression levels in colonospheres and HCT 116 cells
3 | C=C(C)[C@@H]1CCC(C)=C[C@H]1c1c(O)cc(CCC)cc1O [CBDV, cannabidivarin] |  |  | potent dose-dependent anti-proliferative effect of colonospheres formation; also recorded: inhibit colonospheres formation |  |  | clearly diminished Notch1 levels; also recorded: reduce Notch1 expression levels | reduce Notch1 expression levels in a concentration-dependent manner |  |  |  |  |  |  |  | 
